Test results reported in US10213425B2, “Role of N-2-hydroxy-ethyl-piperazine-N′-2-ethane sulfonic acid (HEPES) in pain control and reversal of demyelinization injury” (Bespoke Bioscience, LLC, priority 2009, dated 2019).

Legend:
[1] = tested on: Multiple Sclerosis; experiment: Clinical case, Multiple Sclerosis patient (Example 1); format: in vivo, human; settings: MS patient
From the text: patient four is a public elementary school teacher, who was diagnosed with MS when they were […].
Mentally, they often experienced periods of lack of concentration and follow-through of immediate projects, generalized muscular stiffness and lack of fine motor coordination with episodes of lurching gait and imbalance. Very bothersome was their manual discoordination which adversely influenced their writing on the chalk board. Indeed, the symptoms were so frequent that their teaching contract was not renewed. They subsequently obtained employment at an academically excellent small Episcopal school where the classes were small and the stress level was considerably less compared with the public school system.
Despite these changes of venue, they had more frequent exacerbations and remissions and experienced multiple medication programs with their very concerned neurologist physician. They continued to use block letters on the blackboard rather than cursive black-board writing as a form of communicating with their students.
After a particularly severe episode of problems, they completely lost the ability to write (e.g., writing a payment check) owing to the loss of manual sensory function and erratic motor movements. The present inventors were asked to see them by the school administrator, who served as their friend and confidant. […]

[2] = tested on: Cancer of the Pancreas; experiment: Clinical case, cancer of the pancreas with metastases: analgesic and anti-tumor activity (Example 6); format: in vivo, human
Description: The pain was not relieved by passing bowel movements or any other maneuver. They were seen by their personal physician, who diagnosed Type II diabetes mellitus. They were placed on anti-diabetic medication and diet. No additional studies related to the abdominal pain were carried out, even though they were peculiar in a patient with diabetes. Their diabetic state was under satisfactory control with a few weeks, but the abdominal pain problem persisted.
The abdominal pains increased in intensity with new severe pains in the mid-dorsal thoracic spine. […] They underwent radiation treatments for the thoracic lesions which eased, to a limited extent, the pain in this area.
In consultation with the patient ombudsmen group at M. D. Anderson Hospital in Houston, Tex., the family was told that none of the current study protocols were appropriate for their current condition of cancer of the pancreas with wide-spread metastases and such advanced disease. They were given 2-4 months to live. It was recommended that they be treated with pain protocols by the local institutions in the Dallas-Fort Worth area. They were treated by their personal physician who placed them on opiate analgesics for pain control.
In February, 2006, their personal physician contacted the present inventors concerning the possible addition of HEPES as they were receiving the maximal level of opiate medication, which was not controlling the pain the patient was experiencing. In March, 2006, they were placed on a daily dosage of the product administered by intravenous infusion, while continuing their maximum opiate analgesic medication.
In July, 2006, they developed significant anorexia, probably secondary to the increasing levels of endogenous TNF-alpha (cachectic factor). Dronabinol was recommended, but refused by the patient owing to the medication being derived from marijuana. Thereafter, natural source inhibitors of cachectic factor (Table 2) were recommended, but the patient refused to take any of these as they felt these might interfere with the pain control, which was acceptable. They were then offered parenteral nutritional support, which they declined.
From mid-November, 2006, […] developed weakness associated with continued weight loss, and from late November became bed-ridden. […] 2006. While the death certificate lists the cause of death as cancer of the pancreas, in truth the cause of death was terminal anorexia, inanition, and malnutrition, with more than 65 pound weigh loss.

[3] = tested on: cell cultures of both animal and human origin; settings: studies not specified; cited from earlier work
[4] = tested on: Pediatric Autoimmune Neurological Disease Associated with Strep (PANDAS); experiment: Clinical case, Pediatric Autoimmune Neurological Disease Associated with Strep (PANDAS) (Example 7); format: in vivo, human; settings: for frequency of athetotic movements: intravenous
[5] = tested on: Benzodiazepine Withdrawal Symptoms; experiment: Clinical case, benzodiazepine withdrawal symptoms (Example 8); format: in vivo, human
From the text: patient five is a person, who was initially placed on benzodiazepine medication for panic attacks which presented. They have been on various forms of medications constituting this group for more than three decades. The dilemma which exists is that often the original condition for which the diazepines are prescribed are considered to be psychiatric in nature. When pain and neurological symptoms appear associated with withdrawal, it is often misdiagnosed with additional medications given which compounds the problem. These medications are recommended for short term treatment (4-6 weeks) only, but as with this patient, usage extends over years. One of the major withdrawal symptoms include violent repetitive “tics” which are considerably worsened with emotional situations and other stressors. Abnormal ideation often takes the form of bizarre thoughts as the functioning of the superego is marked impaired. Thus, these patients do things which under normal conditions would never contemplate, much less act out. As a result of these factors, our patient lost their successful business, their houses, and their family comprised of their spouse and three beautiful daughters. They walk with a hopping motion associated with bizarre flailing movements of the shoulder and arms. On the internet are listings of more than 300 withdrawal symptoms. The present inventors were consulted on this patient to see if we could ameliorate their extreme pain problems. Their neurologic examination was truly strange. […] They were started on HEPES by the oral route. […] They will be closely monitored as to their condition with additional treatment.

[6] = tested on: Chronic Inflammatory Demyelinating Polyradiculoneuropathy (CIDP); experiment: Clinical case, Chronic Inflammatory Demyelinating Polyradiculoneuropathy (Example 9); format: in vivo, human; settings: daily oral product, after three weeks
From the text: patient three is a person who presents with a history of multiple allergies, infections (including viral meningitis/aseptic encephalitis), multiple episodes of antibiotic treatments, etc. They describe their physical status historically as follows: “I have been seriously ill since 1991 with progressive neurologic deficits, which culminated with significant loss of motor control in 1993. The condition was misdiagnosed as Multiple Sclerosis with negative findings on Mill.” They initially ambulated slowly with the use of a cane. In 1994 they were paralyzed from the neck down. They were treated with Ig intravenously and recovered over a period of weeks. Five months later, they experienced a similar episode. This time the Ig therapy was only weakly helpful, and they as treated with therapeutic plasma exchanges every two weeks. They have recently been experiencing significant pains in their extremities and HEPES was started orally both for pain control and possible reinforcement of any myelinating defects, as our medical colleagues in the Netherlands have had significant success in reversing the demyelination process.

[7] = tested on: Parkinson's Disease; experiment: Clinical cases, Parkinson's Disease patients (Examples 4 and 5); format: in vivo, human
From the text: […] The family history is positive. They have been tried on a variety of Parkinsonian medications, the beneficial actions of which seem to disappear within a few months.
The hand tremor was present only to a small degree, but the head tremors and tics were very prominent to the degree that […] would become nauseated if […] kept […] vision pinpointed.
patient one is a person who has had Parkinsonian symptoms since they were […]. They were placed on levo-dopa with gradual increases to six per day along with large doses of Mirapex and polyethylene glycol for their problem with constipation. Their constipation was really quite intractable with abdominal distention and protrusion, nausea and vomiting. Also very worrisome was their diminished deglutitionary activity and tongue biting with oral bleeding. They were unable to stand without assistance and their hesitant walk favored the festinative aspects. […] Over time the daily dosage of levodopa was reduced from the prescribed 6 per day to 2 per day to which a small dose of the dopamine agonist, bromocriptine, was added with singularly beneficial results. Their condition improved to the extent that they were again able to drive themself to the store, buy gasoline, and eat out. Most, most gratifying, indeed!
They were placed on an active bowel treatment program with good results which, when required was supplemented with an enema q.o.d. They continued to be monitored closely.

[8] = tested on: Cerebral Palsy; experiment: Clinical case, cerebral palsy patient (Example 2); format: in vivo, human; settings: oral 5,000 mg daily
From the text: patient five is a child of extraction, whose birthing was extremely difficult, and very probably associated with some degree of neonatal asphyxia, although this was not seriously reflected in the Apgar Score. The person has had superb medical care all their life long with loving and supportive parents able to provide recommended therapies.
Despite the abundance of treatment programs, it required nearly five years for […] to walk slowly in an unassisted manner. Amazingly, their speech pattern and intellectual capabilities were remarkably functional. A major problem was their significant dysfunction with motor skills in their hands. M.S. was given an oral dosage of HEPES of 5,000 mg daily (2 tsps with breakfast, 1 tsp mid-afternoon, and 2 tsps at bedtime). […] After 8 months of therapy, their walking and manual skills have improved to 85% of normal. They became devoted to spending several hours daily on the computer and the amount of knowledge they have acquired and retained is, indeed, phenomenal. The change in this young person has been outstanding and truly gratifying to their parents, their siblings, and especially their physicians.

[9] = General clinical administration of HEPES: effective dosage and tolerability; format: in vivo, human
Description: The product, HEPES, is produced in ultra-pure form and is available from GIBCOL Technologies, Inc. The product is administered on a body weight basis with the determined minimal effective daily dosage of 70-75 mg/kg. The material may be safely given either by oral or parenteral routes. […] The administered product is prepared by a compounding pharmacist, with the dosage of each patient recipient being individualized.

[10] = tested on: Post Chemotherapy Cognitive Impairment (PCCI); experiment: Clinical case, post chemotherapy cognitive impairment (Example 3); format: in vivo, human; settings: PCCI patient, oral 5,000 mg daily in divided doses, after a month
From the text: patient two is a person who, prior to their diagnosis of breast cancer, has been in charge of the family business involving a host of necessary transactions, including maintenance of financial records and tax liabilities. Post chemotherapy they had profound difficulty remembering what day it was, what time it was, had they taken their morning bath, what to cook for any meal, forgetfulness as to daily chores, transporting their children to school-sponsored events, suddenly breaking telephone conversations with their concerned parent without any recall of the action. The major deficit business-wise was the inability to perform simple mathematical calculations. […] They thought they “was going bonkers!” Their parent inquired as to what could be done to alleviate the rapidly deteriorating family problems. A trial on HEPES was recommended as the symptoms were, at least in part, related to demyelination. They were started on oral HEPES, 5,000 mg daily in divided doses. […] They continue to show improvement in a gratifying manner.

[11] = continued daily product at 75 mg/kg
[12] = Example 5 patient, 6,000 mg daily, continued treatment

For `O=S(=O)(O)CCN1CCN(CCO)CC1` [HEPES, N-2-hydroxyethylpiperazine-N′-2-ethanesulfonic acid], the “motor function and exacerbations on continued medication” value ([1]; continued on the oral medication) was “maintained their motor function as well as being free of new exacerbations”, the ability to write ([1]; oral HEPES 5,000 mg daily, after only three days of treatment) was “regained the ability to write cursively and sign their name in a legible fashion” and the opiate side-effects ([2]; HEPES administration with reduced opiate narcotic analgesia) was “elimination of opiate side-effects”. For the same compound, the “opiate analgesic dosage giving good pain control” value ([2]; daily intravenous HEPES, narcotic medication slowly reduced over three months) was “about 25 % of the maximum dosage of the opiate analgesics”, the pain ([2]; daily intravenous infusion added to maximum opiate analgesic medication, after 5 days) was “completely controlled” and the anti-tumor effect ([2]; pancreatic cancer with wide-spread metastases, several additional months of quality living) was “a significant anti-tumor effect”. For the same compound, the “cytotoxicity compared with other buffers” value [3] was “least cytotoxicity of all the known buffers”, the “frequency of athetotic movements” value ([4]; 70-75 mg/kg level achieved, end of the first week, 1,300-1,500 per day before) was 10-15 per day and the “frequency of athetotic movements” value ([4]; end of the second week) was 2-3 movements per day. The involuntary athetoid movements ([4]; oral medication at the same daily dosage, during the next three weeks, triggered by emotional or stressful circumstances) was “infrequent involuntary athetoid movements”, the “tics after product withdrawn” value ([4]; product decreased gradually, no product being given) was “tic-free” and the athetoid movements [5, 11] was “significant reduction in their athetoid movements”. The gait [5, 11] was “improved gait”, the ideation [5, 11] was “more cogent ideation” and the “pain (jaws and teeth, shoulder joints and muscles, precordial chest, temples)” value [5, 11] was “significant relief of their pain”. For the same compound, the “dorsiflexion of left foot on neurologic examination” value ([5]; oral route, after four days on the product) was “normal dorsiflexion of their left foot”, the pain in extremities [6] was “completely controlled” and the “weakness in lower extremities” value [6] was “almost completely resolved”. For the same compound, the “muscular fatigue, stiffness, and tics” value ([7]; Example 4 patient, 5,000 mg daily in divided doses, within a three-week period) was “all disappeared”, the patient-reported overall condition ([7]; Example 4 patient, 5,000 mg daily, after another couple of weeks) was “felt like they were before the diagnosis was made” and the “daily dosage of levodopa needed” value ([7]; Example 5 patient, 6,000 mg HEPES daily, over time, reduced from the prescribed 6 per day, bromocriptine added) was 2 per day. The “swallowing difficulties and tongue biting” value ([7]; Example 5 patient, 6,000 mg daily in divided doses, within three days) was “obviated their swallowing difficulties and abrogated their tongue biting”, the energy level [7, 12] was “improved significantly” and the facial mask [7, 12] was “completely disappeared”. For the same compound, the “walking and manual skills” value ([8]; after 8 months of therapy) was 85 % of normal, the “movement and control of hands and fingers” value ([8]; after three weeks) was “improved to the point where they could selectively (upon oral command) depress the correct key on the computer” and the walking pattern ([8]; after three weeks) was “considerable improvement with significant reduction in ataxic characteristics”. For the same compound, the “minimal effective daily dosage” value ([9]; administered on a body weight basis) was 70 to 75 mg/kg, the side-effects ([9]; general statement on the HEPES product) was “no side-effects” and the side-effects ([9]; oral and parenteral routes) was “without any significant side-effects”. The “brain fog ("cloud")” value [10] was “the “cloud” was gone”.
